# Experimental data published in patent US20260224573A1, “CRYSTAL FORM OF COMPOUND, AND PREPARATION METHOD AND USE THEREOF” (FELICAMED BIOTECHNOLOGY CO., LTD., priority 2023, published 2026).
# Counter-ions that a name gives are not always drawn. Like-named read-outs stand apart in the source and are kept apart here.
# Experiments:
# [1] = TGA weight loss / thermal stability; type: physicochemical; settings: for thermal stability: comparison of TGA/DSC patterns; for TGA weight loss: heated to 150° C.
# Text: TGA and DSC patterns were collected on a TA Q5000 thermogravimetric analyzer and a TA Discovery 2500 differential scanning calorimeter, respectively.
# TGA results were collected on a TA Discovery 5500 thermogravimetric analyzer, and DSC results were collected on a TA Discovery 2500 differential scanning calorimeter.
# [2] = Text: DVS isotherms were collected on an SMS (Surface Measurement Systems) DVS Intrinsic.
# [3] = Assessment of dynamic solubility; type: physicochemical; settings: for pH of filtrate: 37° C.
# [4] = Pharmacokinetics of hydrochloride crystal form A in Beagle dogs; type: in vivo; settings: single i.g. 6 mg/kg
# Procedure: In this experiment, three male Beagle dogs were randomly selected for administration. All the animals were fasted for at least 12 h before administration and were fed again 4 h after administration. […] The blood samples from the animals were collected through the jugular vein, with a blood sample volume of 0.5 mL/time. All collected whole blood samples were placed in centrifuge tubes containing EDTA-K2, and the centrifuge tubes were turned upside down to allow the anticoagulant and blood to be fully mixed. All the blood samples were placed on wet ice before centrifugation and centrifuged at 1500 g for 10 min to separate plasma. The plasma samples were transferred to sample tubes and stored at -40° C. to […] until analysis. The drug concentration in the plasma of each Beagle dog was detected by an LC-MS/MS method.
# Remark: listed apart in the source
# [5] = Assessment of 24-h solubility in pH buffers; type: physicochemical; settings: room temperature; for FC: crystal transfer: Buffer (pH = 7.4); for solubility at 24 h: thermodynamic from solid, read-out: S: solubility, calculated as free form
# [6] = remark: listed apart in the source
# Procedure: A method for testing the density and the tapped density included: (1) a certain mass of to-be-assessed sample was placed into a 5 mL measuring cylinder, and the volume at this moment was recorded. The bulk density was calculated by dividing the mass of the sample by the volume at this moment. (2) The measuring cylinder was slightly tapped 200 times, the final volume was recorded, and the tapped density was calculated by dividing the mass of the sample by the final volume. (3) Three parallel tests were conducted. A method for testing the angle of repose included: (1) a funnel was fixed vertically to a bottom surface, and the material was slowly placed into the funnel. (2) A well-proportioned cone of the material was formed on the bottom surface. The height and bottom surface diameter of the cone were measured. (3) Three parallel tests were conducted.
# [7] = listed as hydrochloride crystal form A
# [8] = dog, plasma, po, male Beagle dogs, mean
# [9] = listed as phosphate crystal form A
compound,measurement,setting,value
CC[S@@](=N)(=O)C[C@H]1CC[C@H](N(C)c2ncnc3[nH]ccc23)CC1 [Sulfate crystal form A],thermal stability,[1]; listed as sulfate crystal form A,poor thermal stability
same,TGA stepwise weight loss,[1]; heated to 100° C.,14.83%
CC[S@@](=N)(=O)C[C@H]1CC[C@H](N(C)c2ncnc3[nH]ccc23)CC1 [Hydrochloride crystal form A],thermal stability,[1],high
same,TGA weight loss,[1]; listed as Hydrochloride Crystal Form A,0.53%
same,TGA weight loss,[1]; [7],0.53%
same,hygroscopicity,[2]; 25° C./80% RH,slight hygroscopicity
same,Crystal transformation after DVS,[2]; XRPD before and after DVS,No
same,pH of filtrate,"[3]; FaSSIF, 1 h",5.0
same,pH of filtrate,"[3]; FaSSIF, 4 h",5.1
same,pH of filtrate,"[3]; FeSSIF, 2 h",4.9
same,pH of filtrate,"[3]; FeSSIF, 4 h",4.9
same,pH of filtrate,"[3]; H2O, 1 h",4.0
same,pH of filtrate,"[3]; H2O, 2 h",4.0
same,pH of filtrate,"[3]; H2O, 4 h",4.0
same,solubility,"[3]; H2O, SGF, FaSSIF and FeSSIF, 37 °C, water, thermodynamic from solid, in H2O, fully soluble",> 9000 µg/mL
same,pH of filtrate,"[3]; SGF, 1 h",2.9
same,pH of filtrate,"[3]; SGF, 4 h",3.0
same,AUC(0-inf),[4]; [8],32100 ng·h/mL
same,AUC(0-t),[4]; [8],31700 ng·h/mL
same,Cmax,[4]; [8],5290 ng/mL
same,Tmax,[4]; [8],0.417 h
same,half-life,[4]; [8],3.59 h
same,MRT inf,"[4]; dog, plasma, po, male Beagle dogs, mean, read-out: MRT0-inf",5.11 h
same,MRT last,"[4]; dog, plasma, po, male Beagle dogs, mean, read-out: MRT0-t",4.84 h
same,clinical observation,[4],no obvious abnormalities were found
same,"UPLC peak Area, RRT 1.62",25° C./60% RH/4 weeks,0.05%
same,"UPLC peak Area, RRT 2.10",25° C./60% RH/4 weeks,0.07%
same,"UPLC peak Area, RRT 2.19",25° C./60% RH/4 weeks,<0.05%
same,Crystal form Transform,"25° C./60% RH/4 weeks, open",No
same,"UPLC peak Area, RRT 1.00",40° C./75% RH/4 weeks,99.88%
same,"UPLC peak Area, RRT 1.62",40° C./75% RH/4 weeks,0.05%
same,"UPLC peak Area, RRT 2.10",40° C./75% RH/4 weeks,0.07%
same,"UPLC peak Area, RRT 2.19",40° C./75% RH/4 weeks,<0.05%
same,Crystal form Transform,"40° C./75% RH/4 weeks, open",No
same,Purity,"40° C./75% RH/4 weeks, open",99.88 area %
same,"UPLC peak Area, RRT 1.62",80° C./1 d,0.05%
same,"UPLC peak Area, RRT 2.10",80° C./1 d,0.08%
same,"UPLC peak Area, RRT 2.19",80° C./1 d,<0.05%
same,Crystal form Transform,"80° C./1 d, closed",No
same,Purity,"80° C./1 d, closed",99.87 area %
same,"UPLC peak Area, RRT 1.00",Starting,99.82%
same,"UPLC peak Area, RRT 1.62",Starting,0.05%
same,"UPLC peak Area, RRT 2.10",Starting,0.08%
same,"UPLC peak Area, RRT 2.19",Starting,0.06%
same,Starting purity,"before storage, UPLC",99.82 area %
same,FC: crystal transfer,[5],Yes
same,FC: crystal transfer,[5]; [7],transformed into the free crystal form A
same,solubility at 24 h,"[5]; buffer pH 2.0, pH 2, aqueous buffer, Buffer (pH = 2.0)",> 9200 µg/mL
same,solubility at 24 h,"[5]; buffer pH 4.5, pH 4.5, aqueous buffer, Buffer (pH = 4.5)",> 9200 µg/mL
same,flowability,[6]; conclusion from Carr index and angle of repose,high flowability
same,Bulk density,[6]; single tests 1 to 3,0.14 g/mL
same,Average bulk density,[6]; three parallel tests,0.14 g/mL
same,Average tapped density,"[6]; three parallel tests, tapped 200 times",0.24 g/mL
CC[S@@](=N)(=O)C[C@H]1CC[C@H](N(C)c2ncnc3[nH]ccc23)CC1 [Phosphate crystal form A],thermal stability,[1]; [9],slightly poor thermal stability
same,TGA weight loss,[1]; listed as Phosphate Crystal Form A,2.82%
same,TGA weight loss,[1]; [9],2.82%
